In ChEMBL document CHEMBL3244087, “Ergoline congeners as potential inhibitors of prolactin release. 3. Derivatives of 3-phenylpiperidine” (1977):

Each compound was assayed on Rattus norvegicus (assay: Inhibition of prolactin release in reserpinized rat assessed as reduction in serum prolactin level at 2 mg, ip after 1 hr post dose by radioimmunoassay relative to untreated control).
Type: functional

Row | Compound | inhibition (INH)
1 | CCOC(=O)C1CC(c2cc(OC)c(C)cc2OC)CN(C)C1 (stereo unspecified) | 5%
2 | COc1cc(C2CC(CO)CN(C)C2)c(OC)cc1C (stereo unspecified) | -2%
3 | CCOC(=O)C1=CC(c2cc(OC)c(C)cc2OC)CN(C)C1 (stereo unspecified) | -5%
4 | COc1cc(C2CC(CC#N)CN(C)C2)c(OC)cc1C (stereo unspecified) | -13%

These compounds were tested on Rattus norvegicus (assay: Inhibition of prolactin release in reserpinized rat assessed as reduction in serum prolactin level at 1 mg, ip after 1 hr post dose by radioimmunoassay relative to untreated control).
Type: functional

Row | Compound | inhibition (INH)
5 | CCOC(=O)C1CN(C)CC(c2cc(OC)c(C)cc2OC)C1=O (stereo unspecified) | 22%
6 | CN1CCc2cccc3c2[C@H]1Cc1ccc(O)c(O)c1-3 [APOMORPHINE] | 29%
